Key:
[1] = Displacement of [3H]-SCH23390 from dopamine D1 receptor (unknown origin) expressed in sheep striatum membranes after […] by scintillation counting analysis
[2] = Displacement of [3H]-R-PIA from adenosine A1 receptor (unknown origin) expressed in sheep striatum membranes after 2 hrs by scintillation counting analysis
[3] = Displacement of [3H]-YM09151-2 from dopamine D2 receptor (unknown origin) expressed in sheep striatum membranes assessed as high affinity constant after 2 hrs by scintillation counting analysis
[4] = Displacement of [3H]-YM09151-2 from dopamine D2 receptor (unknown origin) expressed in sheep striatum membranes assessed as low affinity constant after 2 hrs by scintillation counting analysis

Row | Kd [1] [nM] | Kd [2] [nM] | Kd [3] [nM] | Kd [4] [nM] | Structure (SMILES)
1 | 1200 | > 100000 | 4700 | – | CCCC[C@H](NC(=O)[C@H]1CC[C@@H]2c3[nH]c4ccccc4c3CCN2C1)C(=O)N[C@@H](Cc1ccc(O)cc1)C(=O)N[C@@H](CCCCN)C(N)=O
2 | 1300 | > 100000 | 190 | 8000 | CCCC[C@H](NC(=O)[C@H]1CC[C@@H]2c3[nH]c4ccccc4c3CCN2C1)C(=O)N[C@@H](Cc1ccc(F)c(F)c1)C(=O)N[C@@H](CCCCN)C(N)=O
